Our source for the AUC(0-inf), AUC(0-t) and Cmax values is US20120263791A1, “FOMULATION COMPRISING 1 H-QUINAZOLINE-2, 4-DIONE AMPA RECEPTOR ANTAGONISTS, IN THE FORM OF IMMEDIATE RELEASE TABLETS AND PREPARATION THEREOF” (NOVARTIS AG, priority 2009, published 2012).

A short description of this data set: PK parameters after a single dose of three 50 mg tablets to a sample population (12). It counts as in vivo. The settings on record: human, po, 150 mg, plasma, three 50 mg tablets of Example 4 in a single dose. Here is the method: A 50 mg tablet as specified in Example 4 was prepared using the procedure described in Example 4. Three tablets were administered in a single dose to a sample population (12) and the PK parameters measured. These parameters are provided below.
Primary PK variables were […] and analyzed using a mixed effects linear model. Sequence, Period and Treatment factors were included in the model as fixed effects and subject as a random effect. 90% confidence intervals for PK variables (pharmacokinetic analysis population).
Drug Substance: Compound (iii); Matrix: Plasma; Analyte: Compound (iii).

What is called Cmax is the maximum level reached in the sampled fluid or tissue. Turning to `CC(C)c1cc2[nH]c(=O)n(NS(C)(=O)=O)c(=O)c2cc1-c1ccnn1C` [Compound (iii)], under “read-out: AUCinf, adjusted geometric mean”, the AUC(0-inf) turned out to be 16800 ng·h/mL. Besides, the AUC(0-t) (read-out: AUClast, adjusted geometric mean) came out at 16800 ng·h/mL. Also, the Cmax (read-out: Cmax, adjusted geometric mean) worked out at 2910 ng/mL.
